Reference: ChEMBL document CHEMBL6127064, “Discovery of GNE-6893, a Potent, Selective, Orally Bioavailable Small Molecule Inhibitor of HPK1” (ACS Med Chem Lett, 2024)

What was measured:
[1] = Inhibition of human full length HPK1-T165E/S171E mutant expressed in baculovirus expression system assessed as inhibition of SLP76 phosphorylation using biotinylated SLP76 as substrate preincubated for 30 mins followed by incubation with substrate in presence of ATP and measured for 60 mins by HTRF assay
[2] = molecular target: T1, Mitogen-activated protein kinase kinase kinase kinase 1 (Homo sapiens, UniProt Q92918); assay: Inhibition of HPK1 in human Jurkat cells assessed as inhibition of anti-CD3/anti-CD28-induced SLP76 phosporylation at Ser376 residue incubated for 30 mins by ELISA; assay type: cell-based
[3] = molecular target: T1, Mitogen-activated protein kinase kinase kinase kinase 1; assay: Inhibition of HPK1 in primary human Pan T cells assessed as increase in IL-2 secretion pretreated for 30 mins followed by incubation with anti-CD3/anti-CD28 and measured after 4 hrs by MSD assay; assay type: cell-based, T cell
[4] = Volume of distribution at steady state in C57BL/6 mouse at 25 mg/kg, po or 1 mg/kg, iv measured for 24 hrs by LC-MS/MS analysis; assay type: ADME, organism-based; details: in vivo
[5] = Oral bioavailability in Sprague-Dawley rat; assay type: ADME, organism-based; details: in vivo
[6] = Protein binding in mouse plasma; assay type: ADME, cell-free; details: read-out: PPB (converted)
[7] = Protein binding in dog plasma; assay type: ADME, cell-free, Canis lupus familiaris; details: read-out: PPB (converted)
[8] = Protein binding in cynomolgus monkey plasma; assay type: ADME, cell-free, Macaca fascicularis; details: read-out: PPB (converted)
[9] = Volume of distribution at steady state in Beagle dog at 0.5 mg/kg, po or 0.5 mg/kg, iv measured for 24 hrs by LC/MS/MS analysis; assay type: ADME, organism-based, Canis lupus familiaris; details: in vivo
[10] = Half life in Beagle dog at 0.5 mg/kg, po or 0.5 mg/kg, iv measured for 24 hrs by LC/MS/MS analysis; assay type: ADME, organism-based, Canis lupus familiaris; details: in vivo
[11] = Oral bioavailability in Beagle dog at 0.5 mg/kg measured for 24 hrs by LC/MS/MS analysis; assay type: ADME, organism-based, Canis lupus familiaris; details: in vivo
[12] = Volume of distribution at steady state in cynomolgus monkey at 0.5 mg/kg, po or 0.5 mg/kg, iv measured for 24 hrs by LC/MS/MS analysis; assay type: ADME, organism-based, Macaca fascicularis; details: in vivo
[13] = Oral bioavailability in cynomolgus monkey at 0.5 mg/kg measured for 24 hrs by LC/MS/MS analysis; assay type: ADME, organism-based, Macaca fascicularis; details: in vivo
Aurora kinase B = Aurora kinase B (Homo sapiens, UniProt Q96GD4); assay: Inhibition of Aurora kinase B (unknown origin)
[14] = molecular target: Leucine-rich repeat serine/threonine-protein kinase 2 (Homo sapiens, UniProt Q5S007); assay: Inhibition of LRRK2 (unknown origin)
[15] = molecular target: T2, Mitogen-activated protein kinase kinase kinase kinase 2 (Homo sapiens, UniProt Q12851); assay: Inhibition of GCK (unknown origin)
T2 sequence (Q12851 whole entry): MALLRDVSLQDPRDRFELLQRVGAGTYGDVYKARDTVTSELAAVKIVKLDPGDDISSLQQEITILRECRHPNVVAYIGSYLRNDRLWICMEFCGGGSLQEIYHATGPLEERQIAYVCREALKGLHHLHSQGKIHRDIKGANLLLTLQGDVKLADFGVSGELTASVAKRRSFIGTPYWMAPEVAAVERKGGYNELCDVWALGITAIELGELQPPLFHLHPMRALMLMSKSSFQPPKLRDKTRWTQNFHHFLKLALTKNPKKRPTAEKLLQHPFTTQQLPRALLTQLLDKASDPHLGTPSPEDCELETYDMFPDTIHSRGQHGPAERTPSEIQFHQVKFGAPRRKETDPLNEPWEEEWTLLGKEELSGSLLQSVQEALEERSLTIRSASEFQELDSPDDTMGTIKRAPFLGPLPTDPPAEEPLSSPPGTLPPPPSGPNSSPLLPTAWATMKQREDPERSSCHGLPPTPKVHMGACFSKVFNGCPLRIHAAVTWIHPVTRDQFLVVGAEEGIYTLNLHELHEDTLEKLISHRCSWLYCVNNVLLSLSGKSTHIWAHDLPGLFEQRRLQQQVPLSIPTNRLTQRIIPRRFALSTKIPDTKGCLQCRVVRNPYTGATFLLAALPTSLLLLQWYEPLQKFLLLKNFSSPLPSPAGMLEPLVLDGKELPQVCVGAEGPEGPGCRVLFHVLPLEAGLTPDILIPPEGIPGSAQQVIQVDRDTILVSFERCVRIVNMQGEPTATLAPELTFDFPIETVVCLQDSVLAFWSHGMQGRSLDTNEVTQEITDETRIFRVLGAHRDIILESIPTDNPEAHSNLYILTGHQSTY

[16] = Selectivity ratio of IC50 for inhibition of GCK (unknown origin) to Ki for inhibition of human full length HPK1-T165E/S171E mutant expressed in baculovirus expression system
[17] = Selectivity ratio of IC50 for inhibition of GLK (unknown origin) to Ki for inhibition of human full length HPK1-T165E/S171E mutant expressed in baculovirus expression system
[18] = Selectivity ratio of IC50 for inhibition of MAP4K4 (unknown origin) to Ki for inhibition of human full length HPK1-T165E/S171E mutant expressed in baculovirus expression system
Misshapen-like kinase 1 = Misshapen-like kinase 1 (Homo sapiens, UniProt Q8N4C8); assay: Inhibition of MINK1 (unknown origin)
[19] = molecular target: TRAF2 and NCK-interacting protein kinase (Homo sapiens, UniProt Q9UKE5); assay: Inhibition of TNIK (unknown origin)
[20] = Selectivity ratio of IC50 for inhibition of TNIK (unknown origin) to Ki for inhibition of human full length HPK1-T165E/S171E mutant expressed in baculovirus expression system
[21] = Inhibition of KHS1 (unknown origin); set-up: species or system Homo sapiens
[22] = molecular target: Sodium-dependent serotonin transporter (Homo sapiens) (UniProt P31645); assay: Inhibition of 5-HTT (unknown origin) at 10 uM
Homo sapiens = species: Homo sapiens; assay: Inhibition of benzodiazepine receptor (unknown origin) at 10 uM
[23] = molecular target: Voltage-dependent L-type calcium channel subunit alpha-1C (Homo sapiens, UniProt Q13936); assay: Inhibition of Cav1.2 (unknown origin)
Hepatocyte = assay: Cytotoxicity against human primary hepatocytes upto 100 uM; assay type: toxicity, cell-based
[24] = Cytotoxicity against human liver-microtissues upto 100 uM; assay type: toxicity, tissue-based

T1 sequence (Q92918 whole entry): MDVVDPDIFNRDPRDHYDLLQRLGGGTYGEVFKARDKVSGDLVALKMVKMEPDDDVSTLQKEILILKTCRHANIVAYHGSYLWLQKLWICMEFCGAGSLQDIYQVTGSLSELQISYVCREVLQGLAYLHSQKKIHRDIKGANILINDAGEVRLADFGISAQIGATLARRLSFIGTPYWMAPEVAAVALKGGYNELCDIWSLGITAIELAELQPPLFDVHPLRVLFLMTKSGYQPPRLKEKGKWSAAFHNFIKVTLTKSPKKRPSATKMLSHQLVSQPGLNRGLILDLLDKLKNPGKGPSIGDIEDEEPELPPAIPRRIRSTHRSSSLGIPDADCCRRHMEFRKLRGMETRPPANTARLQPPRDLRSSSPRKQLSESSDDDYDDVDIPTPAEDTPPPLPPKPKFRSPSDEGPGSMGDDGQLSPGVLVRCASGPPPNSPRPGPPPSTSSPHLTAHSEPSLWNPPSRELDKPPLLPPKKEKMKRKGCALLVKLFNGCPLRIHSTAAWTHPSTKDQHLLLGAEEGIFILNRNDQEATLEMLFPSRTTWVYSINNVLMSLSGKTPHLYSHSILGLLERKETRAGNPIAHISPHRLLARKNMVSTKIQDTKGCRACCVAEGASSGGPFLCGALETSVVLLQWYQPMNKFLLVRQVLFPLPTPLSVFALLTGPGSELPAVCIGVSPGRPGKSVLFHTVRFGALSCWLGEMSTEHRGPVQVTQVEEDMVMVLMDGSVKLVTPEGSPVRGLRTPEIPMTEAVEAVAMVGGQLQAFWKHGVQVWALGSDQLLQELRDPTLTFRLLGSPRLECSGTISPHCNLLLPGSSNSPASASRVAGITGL
Chain of Leucine-rich repeat serine/threonine-protein kinase 2 (Q5S007 whole entry): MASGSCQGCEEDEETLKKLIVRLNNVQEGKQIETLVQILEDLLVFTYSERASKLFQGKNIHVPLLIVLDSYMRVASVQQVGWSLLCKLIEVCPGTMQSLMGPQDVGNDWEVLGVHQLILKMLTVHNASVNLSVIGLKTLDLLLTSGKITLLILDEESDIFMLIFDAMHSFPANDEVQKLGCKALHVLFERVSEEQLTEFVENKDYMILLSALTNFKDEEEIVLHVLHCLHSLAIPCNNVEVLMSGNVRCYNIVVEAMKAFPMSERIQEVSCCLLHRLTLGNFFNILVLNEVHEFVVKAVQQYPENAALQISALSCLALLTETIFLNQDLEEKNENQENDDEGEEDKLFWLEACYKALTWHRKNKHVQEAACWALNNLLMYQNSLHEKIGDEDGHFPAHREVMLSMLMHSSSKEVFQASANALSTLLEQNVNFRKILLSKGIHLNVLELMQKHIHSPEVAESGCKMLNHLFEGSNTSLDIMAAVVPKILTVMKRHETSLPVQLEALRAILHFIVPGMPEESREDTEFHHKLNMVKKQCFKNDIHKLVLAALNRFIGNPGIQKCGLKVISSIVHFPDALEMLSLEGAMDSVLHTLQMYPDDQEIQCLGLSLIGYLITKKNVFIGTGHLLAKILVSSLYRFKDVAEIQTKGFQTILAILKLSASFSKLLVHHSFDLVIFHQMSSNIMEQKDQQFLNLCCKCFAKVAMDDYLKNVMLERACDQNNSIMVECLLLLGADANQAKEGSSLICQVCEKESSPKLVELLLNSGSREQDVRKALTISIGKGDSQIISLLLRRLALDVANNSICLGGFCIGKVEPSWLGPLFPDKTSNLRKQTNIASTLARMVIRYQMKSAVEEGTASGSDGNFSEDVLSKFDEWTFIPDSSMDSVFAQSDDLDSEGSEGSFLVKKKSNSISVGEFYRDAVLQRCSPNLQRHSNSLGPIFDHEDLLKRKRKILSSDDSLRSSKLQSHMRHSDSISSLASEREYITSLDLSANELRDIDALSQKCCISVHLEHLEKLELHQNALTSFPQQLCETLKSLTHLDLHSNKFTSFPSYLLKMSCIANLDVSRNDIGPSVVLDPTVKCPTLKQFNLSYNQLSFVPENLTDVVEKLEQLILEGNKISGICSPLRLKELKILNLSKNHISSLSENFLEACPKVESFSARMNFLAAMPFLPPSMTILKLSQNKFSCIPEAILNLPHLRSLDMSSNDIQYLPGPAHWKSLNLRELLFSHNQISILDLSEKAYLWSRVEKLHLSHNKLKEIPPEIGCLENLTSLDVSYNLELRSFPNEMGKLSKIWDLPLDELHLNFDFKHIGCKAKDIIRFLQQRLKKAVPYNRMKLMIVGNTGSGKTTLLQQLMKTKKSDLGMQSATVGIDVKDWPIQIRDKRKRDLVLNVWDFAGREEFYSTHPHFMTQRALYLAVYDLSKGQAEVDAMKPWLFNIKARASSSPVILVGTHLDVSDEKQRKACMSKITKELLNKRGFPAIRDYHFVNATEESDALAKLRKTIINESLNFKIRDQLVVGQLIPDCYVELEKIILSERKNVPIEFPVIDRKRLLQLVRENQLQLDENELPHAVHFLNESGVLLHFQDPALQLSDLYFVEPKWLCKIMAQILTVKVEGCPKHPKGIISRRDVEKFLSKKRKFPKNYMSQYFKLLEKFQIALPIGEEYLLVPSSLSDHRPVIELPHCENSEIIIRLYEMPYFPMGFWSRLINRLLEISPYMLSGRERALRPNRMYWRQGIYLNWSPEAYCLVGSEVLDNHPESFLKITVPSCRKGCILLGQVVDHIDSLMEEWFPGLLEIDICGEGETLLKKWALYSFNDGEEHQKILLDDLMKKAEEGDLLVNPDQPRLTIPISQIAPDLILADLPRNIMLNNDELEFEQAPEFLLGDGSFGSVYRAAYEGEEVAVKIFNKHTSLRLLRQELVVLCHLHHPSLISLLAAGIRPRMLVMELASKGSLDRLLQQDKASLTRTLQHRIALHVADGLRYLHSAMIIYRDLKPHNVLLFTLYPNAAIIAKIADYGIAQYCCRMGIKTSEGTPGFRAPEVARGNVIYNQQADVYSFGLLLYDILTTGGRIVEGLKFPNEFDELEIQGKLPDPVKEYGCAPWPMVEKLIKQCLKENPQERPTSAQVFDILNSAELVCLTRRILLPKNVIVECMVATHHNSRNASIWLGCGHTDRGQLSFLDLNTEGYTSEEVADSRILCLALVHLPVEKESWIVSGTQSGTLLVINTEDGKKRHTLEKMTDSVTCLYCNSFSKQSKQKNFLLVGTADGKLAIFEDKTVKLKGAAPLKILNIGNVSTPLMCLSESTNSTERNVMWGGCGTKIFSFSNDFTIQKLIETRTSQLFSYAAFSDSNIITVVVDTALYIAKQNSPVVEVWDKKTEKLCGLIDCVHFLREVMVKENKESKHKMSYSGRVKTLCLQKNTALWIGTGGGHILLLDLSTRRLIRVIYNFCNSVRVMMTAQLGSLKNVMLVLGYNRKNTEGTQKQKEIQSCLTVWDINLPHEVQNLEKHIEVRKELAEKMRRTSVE
Chain of Sodium-dependent serotonin transporter (Homo sapiens) (P31645 whole entry, looked up): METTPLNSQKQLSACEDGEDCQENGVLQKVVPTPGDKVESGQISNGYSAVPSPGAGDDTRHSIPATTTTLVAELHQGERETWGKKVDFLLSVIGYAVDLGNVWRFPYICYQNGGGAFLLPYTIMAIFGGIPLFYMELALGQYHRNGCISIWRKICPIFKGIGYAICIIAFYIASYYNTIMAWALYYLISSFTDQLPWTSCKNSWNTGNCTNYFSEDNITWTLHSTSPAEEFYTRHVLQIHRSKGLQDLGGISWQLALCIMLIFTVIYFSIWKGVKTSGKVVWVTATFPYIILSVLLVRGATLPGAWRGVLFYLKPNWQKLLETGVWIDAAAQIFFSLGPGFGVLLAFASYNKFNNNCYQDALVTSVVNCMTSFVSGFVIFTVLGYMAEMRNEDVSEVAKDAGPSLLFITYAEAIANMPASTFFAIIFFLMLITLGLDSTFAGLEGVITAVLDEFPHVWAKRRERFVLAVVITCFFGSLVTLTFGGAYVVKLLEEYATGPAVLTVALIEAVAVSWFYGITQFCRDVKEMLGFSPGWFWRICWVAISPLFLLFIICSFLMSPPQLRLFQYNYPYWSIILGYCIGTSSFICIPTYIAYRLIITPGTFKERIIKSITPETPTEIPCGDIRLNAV
Chain of Aurora kinase B (Q96GD4 whole entry): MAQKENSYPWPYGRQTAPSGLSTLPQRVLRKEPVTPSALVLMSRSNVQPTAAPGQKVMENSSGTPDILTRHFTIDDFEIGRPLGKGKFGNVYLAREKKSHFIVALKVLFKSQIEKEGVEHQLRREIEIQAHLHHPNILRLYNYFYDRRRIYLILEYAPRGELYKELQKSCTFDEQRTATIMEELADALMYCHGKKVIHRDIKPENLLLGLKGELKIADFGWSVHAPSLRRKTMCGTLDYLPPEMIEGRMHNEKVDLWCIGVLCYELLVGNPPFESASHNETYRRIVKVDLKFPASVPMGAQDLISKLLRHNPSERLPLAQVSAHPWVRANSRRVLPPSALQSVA

Cc1c(-c2cc3cc(NC(=O)O[C@H]4COC[C@@H]4C)ncc3c(N)c2F)cnc2c1NCCO2
Ki [1]: < 0.019 nM
IC50 [2]: 44 nM
EC50 [3]: 6.4 nM
Vdss [4]: 1.8 L/kg
bioavailability [5]: 30%
fraction unbound [6]: 0.053
fraction unbound [7]: 0.142
fraction unbound [8]: 0.116
Vdss [9]: 2.2 L/kg
half-life [10]: 2.5 h
bioavailability [11]: 46%
Vdss [12]: 1.9 L/kg
bioavailability [13]: 53%
IC50 (Aurora kinase B): 46 nM
IC50 [14]: 31 nM
IC50 [15]: 1.3 nM
Ratio [16]: > 69
Ratio [17]: > 40
Ratio [18]: > 180
IC50 (Misshapen-like kinase 1): 3.6 nM
IC50 [19]: 2.3 nM
Ratio [20]: > 120
IC50 [21]: 3.1 nM
inhibition [22]: 50%
inhibition (Homo sapiens): 50%
IC50 [23]: > 10000 nM
Activity (Hepatocyte): Non-Toxic
Activity [24]: Non-Toxic
